{"source": "paper PMC5931576", "about": "“Allosteric modulation of the farnesoid X receptor by a small molecule” (Scientific Reports, 2018)", "key": {"SHP mRNA": {"test_system": "SHP mRNA", "test": "FXR target gene quantification (qRT-PCR) in HepG2 cells: SHP", "format": "cell-based", "details": "for SHP mRNA, mean fold activation compared to DMSO (0.1%): HepG2, 24 h"}, "BSEP mRNA": {"test_system": "BSEP mRNA", "test": "FXR target gene quantification (qRT-PCR) in HepG2 cells: BSEP", "format": "cell-based", "details": "for BSEP mRNA, mean fold activation compared to DMSO (0.1%): HepG2, 24 h"}, "[1]": {"test": "Metabolism assay (liver microsomes)", "format": "in vitro ADME, Sprague−Dawley rats", "details": "rat liver microsomes, 10 μM", "method": "(§1) In vitro biological evaluation […]\nMgCl2). After 5 min, the reaction was started by the addition of 13 μL of microsome mix from the liver of Sprague−Dawley rats (Invitrogen; 20 mg protein/mL in 0.1 M phosphate buffer) in a shaking water bath at 37 °C.\nThe reaction was stopped by addition of 250 μL of ice-cold methanol at 0, 15, 30 and 60 min. The samples were diluted with 250 μL of DMSO and centrifuged at 10000 g for 5 min at 4 °C. The supernatants were analyzed and test compound was quantified by HPLC: mobile phase: MeOH 83%/H2O 17%/formic acid 0.1%; flow-rate:\n1 mL/min; stationary phase: MultoHigh Phenyl phase, 5 μm, 250 × 4, precolumn, phenyl, 5 μm, 20 × 4; detection wavelength: 330 and 254 nm; injection volume: 50 μL. Control samples were performed to check the stability of 4 or 16 in the reaction mixture: first control was without NADPH, which is needed for the enzymatic activity of the microsomes, second control was with inactivated microsomes (incubated for 20 min at 90 °C), third control was […]\nquantified by an external calibration curve, where data are expressed as means ± SEM of single determinations […]\nobtained in three independent experiments. […]\nas mean percent of remaining compound ± SEM; n=3): 4: 0 min: 100 ± 0%, 15 min: 86 ± 3%, 30 min: 74 ± 1%,"}, "HepG2 cells": {"test_system": "HepG2 cells", "test": "WST-1 assay", "format": "cell-based", "details": "48 h (or 24 h)", "method": "as §1\nWST-1 assay (Roche Diagnostics International AG, Rotkreuz, Schweiz) was performed according to manufacturer’s protocol and as described previously. In brief, HepG2 cells were seeded in DMEM high glucose, supplemented with SP (1 mM), penicillin (100 U/mL), streptomycin (100 µg/mL) and 10% FCS in 96-well plates (3∙10^4 cells/well). After 24 h, medium was changed to DMEM high glucose, supplemented with penicillin (100 U/mL), streptomycin (100 µg/mL) and 1% charcoal stripped FCS and cells were incubated with 4 or 16 (final […]\nand DMEM/1% DMSO as negative controls. After 48 h (or 24 h), WST reagent (Roche Diagnostics International AG) was added to each well according to manufacturer’s instructions. After 45 min incubation, absorption (450 nm/ reference: 620 nm) was determined with a Tecan Infinite M200 luminometer (Tecan Deutschland GmbH). Each experiment was repeated at least three times in triplicates. […]"}, "PDGF-Rα": {"test_system": "PDGF-Rα", "test": "Kinase inhibition assay (radiometric or HTRF)", "format": "biochemical"}}, "data": [{"smiles": "CS(=O)(=O)O.CS(=O)(=O)O.CS(=O)(=O)O.CS(=O)(=O)O.Cc1ccc(NC(=O)c2ccc(Cl)cc2)cc1Nc1nccc(-c2cccnc2)n1.Cc1ccc(NC(=O)c2ccc(Cl)cc2)cc1Nc1nccc(-c2cccnc2)n1.O.O.O", "note": "[compound 16, 4-Chloro-N-(4-methyl-3-(4-(pyridin-3-yl)pyrimidin-2-ylamino)phenyl)benzamide dimesylate-sesquihydrate]", "values": [{"measurement": "CDCA-induced SHP mRNA expression compared to 1 alone", "setting": "SHP mRNA; HepG2, 16 co-incubated with 1", "result": "about 3 fold"}, {"measurement": "SHP mRNA, mean fold activation compared to DMSO (0.1%)", "setting": "SHP mRNA; 0.3 µM alone", "result": "2.32 ± 0.18"}, {"measurement": "SHP mRNA, mean fold activation compared to DMSO (0.1%)", "setting": "SHP mRNA; 16 (0.3 µM) + 1 (20 µM)", "result": "1.64 ± 0.23"}, {"measurement": "SHP mRNA, mean fold activation compared to DMSO (0.1%)", "setting": "SHP mRNA; 16 (0.3 µM) + 1 (50 µM)", "result": "12.70 ± 1.04"}, {"measurement": "CDCA-induced BSEP mRNA expression compared to 1 alone", "setting": "BSEP mRNA; HepG2, 16 co-incubated with 1", "result": "about 3 fold"}, {"measurement": "BSEP mRNA, mean fold activation compared to DMSO (0.1%)", "setting": "BSEP mRNA; 0.3 µM alone", "result": "2.64 ± 0.07"}, {"measurement": "BSEP mRNA, mean fold activation compared to DMSO (0.1%)", "setting": "BSEP mRNA; 16 (0.3 µM) + 1 (20 µM)", "result": "4.56 ± 0.77"}, {"measurement": "BSEP mRNA, mean fold activation compared to DMSO (0.1%)", "setting": "BSEP mRNA; 16 (0.3 µM) + 1 (50 µM)", "result": "29.37 ± 3.32"}, {"measurement": "mean percent of remaining compound", "setting": "[1]; 0 min", "result": "100 ± 0", "unit": "%"}, {"measurement": "mean percent of remaining compound", "setting": "[1]; 15 min", "result": "92 ± 1", "unit": "%"}, {"measurement": "mean percent of remaining compound", "setting": "[1]; 30 min", "result": "88 ± 1", "unit": "%"}, {"measurement": "mean percent of remaining compound", "setting": "[1]; 60 min", "result": "86 ± 1", "unit": "%"}, {"measurement": "WST-1, mean percent of untreated control", "setting": "HepG2 cells; HepG2, 0.1 µM", "result": "113 ± 1", "unit": "%"}, {"measurement": "WST-1, mean percent of untreated control", "setting": "HepG2 cells; HepG2, 0.3 µM", "result": "107 ± 7", "unit": "%"}, {"measurement": "WST-1, mean percent of untreated control", "setting": "HepG2 cells; HepG2, 1 µM", "result": "112 ± 3", "unit": "%"}, {"measurement": "WST-1, mean percent of untreated control", "setting": "HepG2 cells; HepG2, 10 µM", "result": "92 ± 2", "unit": "%"}, {"measurement": "WST-1, mean percent of untreated control", "setting": "HepG2 cells; HepG2, 50 µM", "result": "87 ± 2", "unit": "%"}, {"measurement": "WST-1, mean percent of untreated control", "setting": "HepG2 cells; HepG2, 16 (0.3 µM) + 1 (50 µM)", "result": "93 ± 7", "unit": "%"}, {"measurement": "Inhibition of PDGF-Rα", "setting": "PDGF-Rα", "result": "potent inhibitor"}]}]}
